# Data from paper PMC10946806, “Development of Bifunctional, Raman Active Diyne‐Girder Stapled α‐Helical Peptides” (Chemistry (Weinheim an Der Bergstrasse, Germany), 2023).
# Positions of bridges follow the written chain, without caps; N, C: chain ends. Non-standard residues stand in square brackets, D forms with d. Residues, ends and D or L forms follow the SMILES beside them. *: point of attachment. FITC = O=C1OC2(c3ccc(O)cc3Oc3cc(O)ccc32)c2ccc(NC(=S)*)cc21; R8 = C=CCCCCCC[C@@](C)(N)C(=O)O; S5 = C=CCCC[C@](C)(N)C(=O)O; Nle = CCCC[C@H](N)C(=O)O; Ahx = NCCCCCC(=O)O
# Assays:
# [1] = on-resin Glaser oxidative coupling of two terminal alkynes (i,i+7 side chains) to 1,3-diyne; CuCl 5 eq, 4,4'-bis(hydroxymethyl)-2,2'-bipyridine 7.5 eq, DIPEA 20 eq, microwave; conditions: the molecule shown is the open-chain precursor, DMF, 10.0 mM, 60.0 °C, 3.0 h
# [2] = Circular dichroism (CD) spectroscopy, % helicity; assay type: physicochemical; conditions: for percentage helicity (in words): peptide 50 μM in PBS pH 7.4, 222 nm; for percentage helicity at 222 nm from mean residue ellipticity: peptide 50 μM in PBS pH 7.4, room temperature, MRE at 222 nm converted by Equation S2
# Description: Circular dichroism (CD): CD spectra were obtained using a JASCO J-810 CD spectrometer. […] Percentage helicities can be calculated for α-helical peptides. […] […] Equation S1. MRE calculation. […] To 100 μL of peptide solution was added 100 11
molecule,measurement,setting,value
CCCC[C@@H]1NC(=O)[C@H](CCCNC(=N)N)NC(=O)[C@H](C)NC(=O)[C@H](Cc2ccc(O)cc2)NC(=O)[C@](C)(NC(=O)[C@H](CCCCN)NC(=O)[C@H](C)NC(=O)CCCCCNC(=S)Nc2ccc3c(c2)C(=O)OC32c3ccc(O)cc3Oc3cc(O)ccc32)CCCCCC/C=C\CCC[C@@](C)(C(=O)N[C@@H](CC(C)C)C(=O)N[C@@H](CCCCN)C(=O)N[C@@H](CCC(=O)O)C(=O)N[C@H](C(=O)N[C@@H](C)C(=O)N[C@@H](CCCCN)C(N)=O)[C@@H](C)CC)NC(=O)[C@H](CCCNC(=N)N)NC(=O)CNC1=O ({FITC-Ahx}-AK[R8]YAR[Nle]GR[S5]LKEIAK-NH2; staple (Z) 3-10),% peptide remaining after 4 h with chymotrypsin,,> 92%
C#CCCCCC[C@@](C)(NC(=O)[C@H](CCCNC(=N)NS(=O)(=O)c1c(C)c(C)c2c(c1C)CC(C)(C)O2)NC(=O)CNC(=O)[C@H](CCCC)NC(=O)[C@H](CCCNC(=N)NS(=O)(=O)c1c(C)c(C)c2c(c1C)CC(C)(C)O2)NC(=O)[C@H](C)NC(=O)[C@H](Cc1ccc(OC(C)(C)C)cc1)NC(=O)[C@](C)(CCCCCC#C)NC(=O)[C@H](CCCCNC(=O)OC(C)(C)C)NC(=O)[C@H](C)NC(=O)CCCCCNC(=O)OCC1c2ccccc2-c2ccccc21)C(=O)N[C@@H](CC(C)C)C(=O)N[C@@H](CCCCNC(=O)OC(C)(C)C)C(=O)N[C@@H](CCC(=O)OC(C)(C)C)C(=O)N[C@H](C(=O)N[C@@H](C)C(=O)N[C@@H](CCCCNC(=O)OC(C)(C)C)C(N)=O)[C@@H](C)CC,"ring closure, conversion by HPLC",[1]; 36-membered ring,52%
"FTU-Ahx-AKS8YAR(Nle)GRR8LKEIAK-NH2 (sidechain bridge or staple) [compound 36, diyne-girder stapled T-STAR peptide, C16 bridge, SR]",percentage helicity (in words),[2],high
C#CCCCCC[C@@](C)(NC(=O)[C@H](CCCCNC(=O)OC(C)(C)C)NC(=O)[C@H](C)NC(=O)CCCCCNC(=O)OCC1c2ccccc2-c2ccccc21)C(=O)N[C@@H](Cc1ccc(OC(C)(C)C)cc1)C(=O)N[C@@H](C)C(=O)N[C@@H](CCCNC(=N)NS(=O)(=O)c1c(C)c(C)c2c(c1C)CC(C)(C)O2)C(=O)N[C@@H](CCCC)C(=O)NCC(=O)N[C@@H](CCCNC(=N)NS(=O)(=O)c1c(C)c(C)c2c(c1C)CC(C)(C)O2)C(=O)N[C@@](C)(CCCCCC#C)C(=O)N[C@@H](CC(C)C)C(=O)N[C@@H](CCCCNC(=O)OC(C)(C)C)C(=O)N[C@@H](CCC(=O)OC(C)(C)C)C(=O)N[C@H](C(=O)N[C@@H](C)C(=O)N[C@@H](CCCCNC(=O)OC(C)(C)C)C(N)=O)[C@@H](C)CC,"ring closure, conversion by HPLC",[1]; 36-membered ring,94%
CCCC[C@@H]1NC(=O)[C@H](CCCNC(=N)N)NC(=O)[C@H](C)NC(=O)[C@H](Cc2ccc(O)cc2)NC(=O)[C@@](C)(NC(=O)[C@H](CCCCN)NC(=O)[C@H](C)NC(=O)CCCCCNC(=S)Nc2ccc3c(c2)C(=O)OC32c3ccc(O)cc3Oc3cc(O)ccc32)CCCCCC#CC#CCCCCC[C@@](C)(C(=O)N[C@@H](CC(C)C)C(=O)N[C@@H](CCCCN)C(=O)N[C@@H](CCC(=O)O)C(=O)N[C@H](C(=O)N[C@@H](C)C(=O)N[C@@H](CCCCN)C(N)=O)[C@@H](C)CC)NC(=O)[C@H](CCCNC(=N)N)NC(=O)CNC1=O,% peptide remaining after 4 h with chymotrypsin,,> 92%
"FTU-Ahx-AKR8YAR(Nle)GRS8LKEIAK-NH2 (sidechain bridge or staple) [compound 35, diyne-girder stapled T-STAR peptide, C16 bridge, RS]",percentage helicity (in words),[2],high
"FTU-Ahx-AKS8YAR(Nle)GRS8LKEIAK-NH2 (sidechain bridge or staple) [compound 33, diyne-girder stapled T-STAR peptide, C16 bridge, SS]",percentage helicity (in words),[2],high
C#CCCCC[C@](C)(NC(=O)[C@H](CCCCNC(=O)OC(C)(C)C)NC(=O)[C@H](C)NC(=O)CCCCCNC(=O)OCC1c2ccccc2-c2ccccc21)C(=O)N[C@@H](Cc1ccc(OC(C)(C)C)cc1)C(=O)N[C@@H](C)C(=O)N[C@@H](CCCNC(=N)NS(=O)(=O)c1c(C)c(C)c2c(c1C)CC(C)(C)O2)C(=O)N[C@@H](CCCC)C(=O)NCC(=O)N[C@@H](CCCNC(=N)NS(=O)(=O)c1c(C)c(C)c2c(c1C)CC(C)(C)O2)C(=O)N[C@@](C)(CCCCC#C)C(=O)N[C@@H](CC(C)C)C(=O)N[C@@H](CCCCNC(=O)OC(C)(C)C)C(=O)N[C@@H](CCC(=O)OC(C)(C)C)C(=O)N[C@H](C(=O)N[C@@H](C)C(=O)N[C@@H](CCCCNC(=O)OC(C)(C)C)C(N)=O)[C@@H](C)CC,"ring closure, conversion by HPLC",[1]; 34-membered ring,65%
C#CCCC[C@](C)(NC(=O)[C@H](CCCCNC(=O)OC(C)(C)C)NC(=O)[C@H](C)NC(=O)CCCCCNC(=O)OCC1c2ccccc2-c2ccccc21)C(=O)N[C@@H](Cc1ccc(OC(C)(C)C)cc1)C(=O)N[C@@H](C)C(=O)N[C@@H](CCCNC(=N)NS(=O)(=O)c1c(C)c(C)c2c(c1C)CC(C)(C)O2)C(=O)N[C@@H](CCCC)C(=O)NCC(=O)N[C@@H](CCCNC(=N)NS(=O)(=O)c1c(C)c(C)c2c(c1C)CC(C)(C)O2)C(=O)N[C@@](C)(CCCC#C)C(=O)N[C@@H](CC(C)C)C(=O)N[C@@H](CCCCNC(=O)OC(C)(C)C)C(=O)N[C@@H](CCC(=O)OC(C)(C)C)C(=O)N[C@H](C(=O)N[C@@H](C)C(=O)N[C@@H](CCCCNC(=O)OC(C)(C)C)C(N)=O)[C@@H](C)CC,"ring closure, conversion by HPLC",[1]; 32-membered ring,52%
C#CCCCCCC[C@@](C)(NC(=O)[C@H](CCCCNC(=O)OC(C)(C)C)NC(=O)[C@H](C)NC(=O)CCCCCNC(=O)OCC1c2ccccc2-c2ccccc21)C(=O)N[C@@H](Cc1ccc(OC(C)(C)C)cc1)C(=O)N[C@@H](C)C(=O)N[C@@H](CCCNC(=N)NS(=O)(=O)c1c(C)c(C)c2c(c1C)CC(C)(C)O2)C(=O)N[C@@H](CCCC)C(=O)NCC(=O)N[C@@H](CCCNC(=N)NS(=O)(=O)c1c(C)c(C)c2c(c1C)CC(C)(C)O2)C(=O)N[C@](C)(CCCCCCC#C)C(=O)N[C@@H](CC(C)C)C(=O)N[C@@H](CCCCNC(=O)OC(C)(C)C)C(=O)N[C@@H](CCC(=O)OC(C)(C)C)C(=O)N[C@H](C(=O)N[C@@H](C)C(=O)N[C@@H](CCCCNC(=O)OC(C)(C)C)C(N)=O)[C@@H](C)CC,"ring closure, conversion by HPLC",[1]; 38-membered ring,93%
CCCC[C@@H]1NC(=O)[C@H](CCCNC(=N)N)NC(=O)[C@H](C)NC(=O)[C@H](Cc2ccc(O)cc2)NC(=O)[C@](C)(NC(=O)[C@H](CCCCN)NC(=O)[C@H](C)NC(=O)CCCCCNC(=S)Nc2ccc3c(c2)C(=O)OC32c3ccc(O)cc3Oc3cc(O)ccc32)CCCCCC/C=C/CCC[C@@](C)(C(=O)N[C@@H](CC(C)C)C(=O)N[C@@H](CCCCN)C(=O)N[C@@H](CCC(=O)O)C(=O)N[C@H](C(=O)N[C@@H](C)C(=O)N[C@@H](CCCCN)C(N)=O)[C@@H](C)CC)NC(=O)[C@H](CCCNC(=N)N)NC(=O)CNC1=O ({FITC-Ahx}-AK[R8]YAR[Nle]GR[S5]LKEIAK-NH2; staple (E) 3-10),% peptide remaining after 4 h with chymotrypsin,,> 92%
"FTU-Ahx-AKS7YAR(Nle)GRR7LKEIAK-NH2 (sidechain bridge or staple) [compound 32, diyne-girder stapled T-STAR peptide, C14 bridge, SR]",percentage helicity at 222 nm from mean residue ellipticity,[2],54%
"FTU-Ahx-AKR7YAR(Nle)GRR7LKEIAK-NH2 (sidechain bridge or staple) [compound 30, diyne-girder stapled T-STAR peptide, C14 bridge, RR]",percentage helicity at 222 nm from mean residue ellipticity,[2],40%
CCCC[C@@H]1NC(=O)[C@H](CCCNC(=N)N)NC(=O)[C@H](C)NC(=O)[C@H](Cc2ccc(O)cc2)NC(=O)[C@@H](NC(=O)[C@H](CCCCN)NC(=O)[C@H](C)NC(=O)CCCCCNC(=S)Nc2ccc3c(c2)C(=O)OC32c3ccc(O)cc3Oc3cc(O)ccc32)CCCCCC#CC#CCCCCC[C@@H](C(=O)N[C@@H](CC(C)C)C(=O)N[C@@H](CCCCN)C(=O)N[C@@H](CCC(=O)O)C(=O)N[C@H](C(=O)N[C@@H](C)C(=O)N[C@@H](CCCCN)C(N)=O)[C@@H](C)CC)NC(=O)[C@H](CCCNC(=N)N)NC(=O)CNC1=O,% peptide remaining after 4 h with chymotrypsin,,> 92%
C#CCCCCCC[C@@](C)(NC(=O)[C@H](CCCCNC(=O)OC(C)(C)C)NC(=O)[C@H](C)NC(=O)CCCCCNC(=O)OCC1c2ccccc2-c2ccccc21)C(=O)N[C@@H](Cc1ccc(OC(C)(C)C)cc1)C(=O)N[C@@H](C)C(=O)N[C@@H](CCCNC(=N)NS(=O)(=O)c1c(C)c(C)c2c(c1C)CC(C)(C)O2)C(=O)N[C@@H](CCCC)C(=O)NCC(=O)N[C@@H](CCCNC(=N)NS(=O)(=O)c1c(C)c(C)c2c(c1C)CC(C)(C)O2)C(=O)N[C@@](C)(CCCCCCC#C)C(=O)N[C@@H](CC(C)C)C(=O)N[C@@H](CCCCNC(=O)OC(C)(C)C)C(=O)N[C@@H](CCC(=O)OC(C)(C)C)C(=O)N[C@H](C(=O)N[C@@H](C)C(=O)N[C@@H](CCCCNC(=O)OC(C)(C)C)C(N)=O)[C@@H](C)CC,"ring closure, conversion by HPLC",[1]; 38-membered ring,100%
"FTU-Ahx-AKR8YAR(Nle)GRR8LKEIAK-NH2 (sidechain bridge or staple) [compound 34, diyne-girder stapled T-STAR peptide, C16 bridge, RR]",percentage helicity at 222 nm from mean residue ellipticity,[2],33%
